The numbers were not newly measured in patent US20170020837A1, “FUMARATE COMPOUNDS, PHARMACEUTICAL COMPOSITIONS THEREOF, AND METHODS OF USE” (priority 2015, published 2017), which cites them from elsewhere.

`COC(=O)/C=C/C(=O)OC` [DMF, dimethylfumarate]: the aqueous solubility entry was “poor”.
